Marks after values point to notes of the source that are not given here.
Tests used:
PDLSCs [1] = test: Impedimetry (xCELLigence), concentration-response study; type: cell-based, human; conditions: 48-h incubation, 0.5 normalized CI
Description: (§1) To evaluate the concentration-dependent effects of the 3 antiseptic agents (H2O2, CHX, and ClO2), 9 different dilutions of each agent were prepared with growth medium (from 3.91 × 10^−6 to 10^−3 M, by 1:2 dilution in each step). As ClO2 is photosensitive and volatile, its dilution series were made in dark Eppendorf tubes which were opened only for the inevitably required time. After a 48-h-long incubation, cell viability was assessed by WST-1 test and impedimetric measurement, respectively (see below). The […] (IC50) values corresponding to the 50% viable cells or 0.5 normalized CI were determined from the concentration-effect curves in the case of the two methods, respectively.
The effect of irrigative agents on the viability of the PDLSC cells was assessed using the xCELLigence SP System (Roche Applied Science, Indianapolis, IN, USA), which monitors the cellular events by measuring electrical impedance across interdigitating gold microelectrodes integrated on the bottom of tissue culture plates (E-plates). The detected impedance is influenced by the viability and morphology of the attached cells on the surface of the electrodes. The presence of cells due to their insulating plasma membranes constrain the electrical current and lead to an increase in the electrode impedance. The impedance depends on the number of the attached cells and on the dimensional change of the attached cells on the electrodes. More cells attached to the electrode or spreading cause a larger increase in the impedance. The change in impedances represented as “cell index” (CI) which is a relative and dimensionless value. Briefly, the experimental protocol was as follows: to register the background value, 100 μL of culture medium was added to each well and impedance was recorded for 1 h to gain constant background curves of impedance. […] The viability of the PDLSC was monitored for 96 h. Normalized impedance to the control calculated by the integrated software (RTCA 1.2—Roche Applied Science, Indianapolis, IN, USA) was used for the statistical evaluation. […]

PDLSC cultures = test: Morphological study, phase-contrast microscopy; type: cell-based, human; conditions: for cell morphology and cell number under phase-contrast microscope: 48 h after treatment, 0.3% H2O2, 0.02% CHX, 0.0025% or 0.00025% ClO2
Excerpt: Cellular morphology was observed under an inverted phase-contrast microscope (Nikon TMS). Photomicrographs were taken applying a high-performance CCD camera (COHU) and the Scion image software.

PDLSCs [2] = test: WST-1 viability assay, 10 min treatment; type: cell-based, human; conditions: P3 and P7, 48 h
Description: (§2) This assay is dedicated to measuring the viability of PDLSCs. In 96-well culture plates, 10,000 PDLSCs were seeded. After 24 h, samples were treated with the irrigative compounds, and final concentrations were H2O2 0.3%, CHX 0.02%, and ClO2 0.0025% and 0.00025% solutions in 4-4 parallel wells. After 10 min, all the irrigative agents were removed and the samples were washed three times with normal growth medium, simulating the diluting effect of saliva in the oral cavity during the periodontal treatments. Forty-eight hours after the treatments, the cell viability was measured by the cell proliferation reagent containing water-soluble tetrazolium salt, WST-1 [2-(4-Iodophenyl)-3-(4-nitrophenyl)-5-(2,4-disulfophenyl)-2H-tetrazolium] (Roche). This assay determines mitochondrial dehydrogenase enzyme activity resulting water-soluble cleavage product. The WST-1 reagent was used at 1:20 dilution and incubation time was 2 h at 37 °C. Absorbance was measured at 450 nm with a reference wavelength of 655 nm by a microplate reader (BIO-RAD Model 3550). Background control values were determined in wells seeded with no cells. Each value represents the average of minimum 3 parallel measurements.

PDLSCs [3] = test: Impedimetry (xCELLigence), 10 min treatment, time course and viability; type: cell-based, human; conditions: for long-term (2–120 h) effect on normalized CI / short-term (0–2 h) effect on normalized CI: 0.0025% and 0.00025% ClO2, 10 min treatment; for viability of PDLSC cultures, impedimetry: 48 h; for repopulation in long-term impedimetric analysis: 5-day-long period after treatment; for normalized Cell Index (CI) two days after the treatment: 37 °C; for cells killed during the first 30 min: ClO2 depending on the concentration applied (0.0025%, 0.00025%)
Description: The effect of irrigative agents on the viability of the PDLSC cells was assessed using the xCELLigence SP System (Roche Applied Science, Indianapolis, IN, USA), which monitors the cellular events by measuring electrical impedance across interdigitating gold microelectrodes integrated on the bottom of tissue culture plates (E-plates). The detected impedance is influenced by the viability and morphology of the attached cells on the surface of the electrodes. The presence of cells due to their insulating plasma membranes constrain the electrical current and lead to an increase in the electrode impedance. The impedance depends on the number of the attached cells and on the dimensional change of the attached cells on the electrodes. More cells attached to the electrode or spreading cause a larger increase in the impedance. The change in impedances represented as “cell index” (CI) which is a relative and dimensionless value. Briefly, the experimental protocol was as follows: to register the background value, 100 μL of culture medium was added to each well and impedance was recorded for 1 h to gain constant background curves of impedance. In the following step, PDLSCs were seeded in 10^5 cells/mL density. After 24-h incubation, they were treated with the solutions of the investigated irrigative compounds (H2O2, CHX, and ClO2) for 10 min and the medium served as reference. […] Normalized impedance to the control calculated by the integrated software (RTCA 1.2—Roche Applied Science, Indianapolis, IN, USA) was used for the statistical evaluation. Each data point represents the mathematical average of three parallels.

[4] = long incubation time; cited from earlier work
PDLSCs [5] = test: WST-1 test, concentration-response study; type: cell-based, human; conditions: 48-h incubation, 50% viable cells
Description: as §1, §2

STRO-1 = test: Immunocytochemistry of stem cell marker STRO-1; type: cell-based, human; conditions: 48 h
Description: (§3) PDLSC cultures grown in 8 chamber slides (Nunc Lab-Tek) were treated with the antiseptic agents similar to the viability studies. After 48 h, treated and untreated cell cultures were fixed in 4% PFA in PBS for 20 min at room temperature (RT). To block non-specific binding, 5% goat serum in PBS was applied for 1 h at RT. Then cell cultures were incubated with the primary antibodies diluted 1:100 with 2.5% goat serum in PBS overnight at 4 °C. The applied primary antibodies were the following: anti-STRO-1 antibody (type mouse IgM)—a generous gift from Prof. Richard Oreffo (University of Southampton, UK); anti-CD90 (Thy-1; type mouse IgG) and the anti-CD105 (endoglin; type mouse IgM) antibodies purchased from Calbiochem and Santa Cruz Biotechnology, respectively. Goat anti-mouse IgM and IgG type secondary antibodies conjugated with Alexa Fluor 488 (Molecular Probes) were diluted with 2.5% goat serum in PBS in 1:2000 and 1:1000 respectively. The incubation time was 60 min at RT. Finally, the walls of the chambers were removed and the slides were mounted with ProLong Gold antifade reagent with DAPI (Molecular Probes). Immunocytochemically labeled cell cultures were investigated under a fluorescence microscope (Nikon Eclipse E600), the photos were taken by a Retiga 2000R digital CCD camera (QImaging), and analyzed by the Image Pro software (Media Cybernetics). Free macros for automated fluorescence analysis of image processing software FIJI/ImageJ were applied to evaluate immunostaining of stem cell markers. Each test point represents 3 × 3 reading of the samples.

[6] = parameters: method as in ref S1; conditions: ref S1, cited from earlier work
CD90 = test: Immunocytochemistry of stem cell marker CD90; type: cell-based, human; conditions: 48 h
Description: as §3

bacteria = test system: bacteria; parameters: method as in PMID 24060558, PMID 23529300; conditions: direct antibacterial and biofilm-dissolving effects; cited from earlier work
Escherichia coli = test system: Escherichia coli; parameters: method as in ref 1 (supplement); conditions: 1 µm diameter cylindrical bacterium; c0 = 300 mg/L (4.45 mM); formula (C), pig bladder parameters; ref 1 (supplement); cited from earlier work
CD105 = test: Immunocytochemistry of stem cell marker CD105; type: cell-based, human; conditions: 48 h
Description: as §3

equine fibroblasts = conditions: cited from earlier work
[7] = test system: human gingival fibroblasts; parameters: method as in PMID 1962413; conditions: cited from earlier work
gingival fibroblasts [8] = test system: gingival fibroblasts; parameters: method as in PMID 1920010; conditions: exposure of dental root surfaces to CHX (0.12%); cited from earlier work
gingival fibroblasts [9] = test system: gingival fibroblasts; parameters: method as in PMID 10632519; conditions: cited from earlier work
PDL cells = test system: PDL cells; parameters: method as in PMID 1507037; conditions: 0.2 to 2.0% CHX pretreatment of the root surface; cited from earlier work
[10] = 0.3% H2O2, 0.02% CHX, higher ClO2 concentration (0.0025%)
[11] = P3 and P7, 0.3% H2O2, 0.02% CHX
[12] = P3, 0.02% CHX, 0.0025% (1/1) ClO2
[13] = P7, 0.02% CHX, 0.0025% (1/1) ClO2
[14] = impedimetric results, 0.02% CHX

SMILES	IC50 (PDLSCs [1])	cell morphology and cell number under phase-contrast microscope (PDLSC cultures)	viability of PDLSC cultures, WST-1 (PDLSCs [2]; [10])	long-term (2–120 h) effect on normalized CI (PDLSCs [3]; 0.3% H2O2, 0.02% CHX)	short-term (0–2 h) effect on normalized CI (PDLSCs [3]; 0.3% H2O2, 0.02% CHX)	viability of PDLSC cultures, impedimetry (PDLSCs [3]; [11])	IC50 (PDLSCs [5])	STRO-1 Fluo. int. [%] Control = 100% (STRO-1; [12])	STRO-1 Fluo. int. [%] Control = 100% (STRO-1; [13])	CD90 Fluo. int. [%] Control = 100% (CD90; [12])	CD90 Fluo. int. [%] Control = 100% (CD90; [13])	repopulation in long-term impedimetric analysis (PDLSCs [3])	cells killed during the first 30 min (PDLSCs [3]; [14])	CD105 Fluo. int. [%] Control = 100% (CD105; [12])	CD105 Fluo. int. [%] Control = 100% (CD105; [13])	also measured
OO [H2O2, hydrogen peroxide]	327 µM	number of cells dramatically decreased	complete lack of any viable cells	retained their short-term cytotoxic effects	rapid decrease of normalized CI profile	complete lack of any viable cells	209 µM									state of cultures at fixation for immunocytochemistry (PDLSC cultures; 48 h after treatment with H2O2): all the cells were dead and detached from the slide; time to kill all the cells (PDLSCs [3]; impedimetric results, 0.3% H2O2): ≤ 1 min; concentrations at which in vitro sporicide effects are evident [4]: 10–30%
[O][Cl+][O-] [ClO2, chlorine dioxide]	795 µM	did not provoke morphological changes	no effect	consistent increase of the curves	significantly less toxic compared to the other two antiseptic substances		638 µM	216.52*** %	120.43* %	83.07%	97.74%	proliferation of the remaining cell population can compensate cell loss	20–30%	213.90*** %	55.46*** %	STRO-1 Fluo. int. [%] Control = 100% (STRO-1; P3, 0.00025% (1/10) ClO2): 145.78** %; STRO-1 Fluo. int. [%] Control = 100% (STRO-1; P7, 0.00025% (1/10) ClO2): 114.69%; diffusion coefficient D(pig bladder) ([6]; cellular pig bladder tissue): 1.8×10^–6 cm^2s^–1; diffusion coefficient D(gelatine) ([6]; unstructured gelatine gel medium): 2.4×10^–6 cm^2s^–1; viability of PDLSC cultures, WST-1 (PDLSCs [2]; lower ClO2 concentration (0.00025%)): unequivocally neutral; CD90 Fluo. int. [%] Control = 100% (CD90; P3, 0.00025% (1/10) ClO2): 159.23** %; CD90 Fluo. int. [%] Control = 100% (CD90; P7, 0.00025% (1/10) ClO2): 54.92*** %; times lower concentration of ClO2 needed to evoke the same or even stronger effect than that of CHX (bacteria): approximately 10 times; killing time (TKILL) (Escherichia coli): 4.4 ms; normalized Cell Index (CI) two days after the treatment (PDLSCs [3]; 10 minute treatment in 2.5 mg/l ClO2 solution): ≈ 0.8; normalized Cell Index (CI) two days after the treatment (PDLSCs [3]; 10 minute treatment in 25 mg/l ClO2 solution): about 0.5; viability of PDLSC cultures, impedimetry (PDLSCs [3]; P3, higher ClO2 concentration (0.0025%)): significant inhibitory effect; viability of PDLSC cultures, impedimetry (PDLSCs [3]; P3 and P7, lower ClO2 concentration (0.00025%)): unequivocally neutral; CD105 Fluo. int. [%] Control = 100% (CD105; P3, 0.00025% (1/10) ClO2): 127.80* %; CD105 Fluo. int. [%] Control = 100% (CD105; P7, 0.00025% (1/10) ClO2): 15.74*** %; toxicity compared with CHX (equine fibroblasts; equine fibroblasts): less toxic to equine fibroblasts than CHX; LD50 ([7]; human gingival fibroblasts): 0.16 mM; apoptotic responses ([7]; low concentrations of ClO2): did not induce apoptotic responses
[H]/N=C(\N/C(=N/[H])NCCCCCCNC(=N)NC(=N)Nc1ccc(Cl)cc1)Nc1ccc(Cl)cc1 [CHX, chlorhexidine]		number of cells dramatically decreased	significantly deteriorating effects	retained their short-term cytotoxic effects	rapid decrease of normalized CI profile	significantly deteriorating effects	16.6 µM	130.52* %	86.02%	199.23*** %	30.98*** %	no sign of repopulation	about 70%	218.18*** %	104.81%	subsequent attachment of gingival fibroblasts (gingival fibroblasts [8]): significantly inhibited; low concentration shown to be toxic, reducing production of collagen and non-collagen proteins (gingival fibroblasts [9]): 0.0001%; IC50 (PDLSCs [1]; Homo sapiens, 48 h): 36.4 µM; attachment of PDL cells onto the root surface and their morphology (PDL cells): adversely altered; cells killed in 5 min (PDLSCs [3]; [14]): 50%; concentration with 50% of survival (equine fibroblasts): 0.005%; IC50 (PDLSCs [5]; Homo sapiens, 48 h): 29.5 µM

Reference: paper PMC8060220, “Comparative study of hyperpure chlorine dioxide with two other irrigants regarding the viability of periodontal ligament stem cells” (Clinical Oral Investigations, 2020)
